# Laboratory results as given in PMC3914206.
# What was measured:
# Type in all cases: binding
# Conditions in all cases: Compound Concentration 10 µM
# [1] = molecular target: T1, panel of 442 kinases (Homo sapiens, UniProt P24941)
# T1 construct: purchased KINOMEscan
# From the text: (§1) We assessed the selectivity of members of this scaffold using the KINOMEscan methodology across a near comprehensive panel of 442 kinases [[18,27]].
# [2] = molecular target: panel of 442 kinases (Homo sapiens, UniProt P19784)
# From the text: as §1
# [3] = molecular target: T2, panel of 442 kinases (Homo sapiens, UniProt Q8N752)
# T2 construct: purchased KINOMEscan
# T2 sequence (Q8N752 1-337): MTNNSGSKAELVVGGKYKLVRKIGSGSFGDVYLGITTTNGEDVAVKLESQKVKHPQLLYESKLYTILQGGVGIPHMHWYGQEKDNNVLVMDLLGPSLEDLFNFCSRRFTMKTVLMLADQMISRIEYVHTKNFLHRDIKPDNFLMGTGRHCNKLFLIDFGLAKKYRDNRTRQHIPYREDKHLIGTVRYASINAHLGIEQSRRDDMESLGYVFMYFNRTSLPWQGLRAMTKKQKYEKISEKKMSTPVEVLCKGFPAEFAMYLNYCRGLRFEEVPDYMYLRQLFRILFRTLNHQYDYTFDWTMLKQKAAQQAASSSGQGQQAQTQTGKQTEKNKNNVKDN
# From the text: as §1
# Sequence of panel of 442 kinases (Homo sapiens, UniProt P19784) (P19784 whole entry): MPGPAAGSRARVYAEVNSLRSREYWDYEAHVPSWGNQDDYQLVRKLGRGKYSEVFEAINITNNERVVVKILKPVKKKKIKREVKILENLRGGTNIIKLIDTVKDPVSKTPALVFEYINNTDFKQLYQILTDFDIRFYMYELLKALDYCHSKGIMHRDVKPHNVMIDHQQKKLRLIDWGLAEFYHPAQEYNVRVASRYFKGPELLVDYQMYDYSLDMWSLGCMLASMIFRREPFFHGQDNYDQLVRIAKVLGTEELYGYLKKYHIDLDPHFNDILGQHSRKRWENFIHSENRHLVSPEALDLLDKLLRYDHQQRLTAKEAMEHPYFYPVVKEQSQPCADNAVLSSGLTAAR
SMILES,KINOMEscan: CDK2 [1],KINOMEscan: CSNK2A2 [2],KINOMEscan: CSNK1A1L [3]
"COc1cc(C(=O)N2CCC(N3CCN(C)CC3)CC2)ccc1Nc1ncc2c(n1)N(C1CCCC1)c1ccccc1C(=O)N2C [Compound 25, 11-cyclopentyl-2-((2-methoxy-4-(4-(4-methylpiperazin-1-yl)piperidine-1-carbonyl)phenyl)amino)-5-methyl-5H-benzo[e]pyrimido[5,4-b][1,4]diazepin-6(11H)-one]",96,100,100
CCOc1cc(C(=O)N2CCC(N3CCN(C)CC3)CC2)ccc1Nc1ncc2c(n1)N(C1CCCC1)c1ccccc1C(=O)N2C [Compound 26],100,97,99
COc1cc(C(=O)N2CCC(N3CCN(C)CC3)CC2)ccc1Nc1ncc2c(n1)N1CCc3cccc(c31)C(=O)N2C [Compound 24],95,,
COc1cc(C(=O)N2CCC(N3CCN(C)CC3)CC2)ccc1Nc1ncc2c(n1)N(C)c1ccccc1C(=O)N2C [15 (LRRK2-IN-1)],100,93,100
